Data reported in the METLIN SMRT retention time set (Domingo-Almenara et al. 2019).

Assay: gradient 5% acetonitrile 3 min, to 50% in 2 min, to 85% in 15 min, held 3 min, 100 µL/min
Details: column: Zorbax Extend-C18 2.1 x 50 mm; eluents: water / acetonitrile, 0.1% formic acid
Procedure, shortened: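 The mobile phases were water and acetonitrile, each with 0.1% formic acid, pumped at 100 μL/min through a Zorbax Extend-C18 column (2.1 × 50 mm, 1.8 μm). Pure standards were injected as mixtures of ~100 molecules and detected by a quadrupole time-of-flight mass spectrometer in positive and negative ionization mode. Retention time came from computationally picked adduct peaks, each inspected by hand.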

SMILES	RP-LC retention time [s]
CCc1cccc(NC(=O)Cc2cn3cc(F)ccc3n2)c1	638
O=C(NC1CCCCC1)NC1CCN(C(=O)C2CCC2)C1 (stereo unspecified)	680
Cc1cccc(S(=O)(=O)N2CC3CN(C(=O)CC4CCCC4)CC(C2)O3)c1	890
CCNC(=O)Nc1ccc(OCC(=O)N2CCN(c3ncccn3)CC2)nc1	604
Cc1ccc(-c2noc(Cn3ccn4nc(-c5ccc6c(c5)OCO6)cc4c3=O)n2)cc1	1050
Cc1nc(CNC(=O)[C@H]2CCCN2S(=O)(=O)c2ccc(Br)cc2)cs1	794
Cn1nccc1-c1cccc(-c2noc(-c3cc(F)cc(F)c3)n2)c1	1220
Cc1ccc(CN2CCN(C3CCN(C(=O)Nc4ccc5c(c4)OCCO5)CC3)C2=O)cc1	765
CN1CCN(c2nnc(SCC(=O)Nc3cccc(C(F)(F)F)c3)s2)CC1	560
Cc1ccc(-c2nc(C(=O)N3CCN(c4ccccc4)CC3)cs2)n1C	1080
CCn1cc(C)c(C(=O)O)c1CC(=O)NCc1ccc2c(c1)OCO2	734
COc1cc(NC(=O)CCc2nc(-c3ccc(N4CCCC4)cc3)no2)cc(OC)c1	1070
CCn1cc(S(=O)(=O)Nc2ccc(OC)cc2)c2cccnc21	786
Cc1ccc(S(=O)(=O)c2cnc(N3CCN(c4ccccc4F)CC3)nc2N)cc1C	1200
CN(C)c1ccc(CNC(=O)c2cc3n(n2)CC(C)(C(=O)NC2CCCCCC2)N(C)C3=O)cc1 (stereo unspecified)	649
CCNC(=O)N1CC(c2nc(-c3ccccc3)no2)C2(CCOCC2)C1 (stereo unspecified)	728
O=C(CCCOc1ccc(Cl)cc1Cl)Nc1nc(-c2ccc(Cl)cc2)cs1	1300
CCCC(=O)Nc1ccc2c(c1)CN(C(=O)c1ccc(F)cc1F)C(C(=O)N(C)C)C2 (stereo unspecified)	704

SMILES	RP-LC retention time [s]
O=C(O)c1ccc2c(c1)N(S(=O)(=O)c1ccccc1F)CC2	789
O=C(NCc1ccc(F)cc1)C1(CCO)CCN(c2ncccn2)C1 (stereo unspecified)	609
CCOc1nc2ccccc2nc1N1CCCC(C(=O)N2CCN(C)CC2)C1 (stereo unspecified)	646
CCOc1ccccc1NC(=O)Nc1nnc(Cc2ccccc2)o1	845
Cc1ccc(-c2nc3ncccn3c2Nc2ccc3c(c2)OCCO3)cc1	684
O=C(Nc1cccc(F)c1)c1nnc(CCCC(=O)N2CCN(c3ccccn3)CC2)s1	646
Cc1ccccc1N1CCN(C(=O)c2cn3c(n2)CCCC3)CC1	668
CCCNC(=O)C1CCN(c2nc3ccsc3c(=O)n2Cc2ccc(F)cc2)CC1	807
COc1ccccc1CCC(=O)N1C[C@@H]2C[C@H](NC(=O)c3cccs3)[C@H]1C2	782
COc1ccccc1NC(=O)C1CC(=O)N(c2n[nH]c3cccc(F)c23)C1 (stereo unspecified)	728
Fc1ccc(-c2nc3cnccn3c2Nc2ccc3c(c2)OCCO3)cc1	818
COc1ccc(CNC(=O)Cc2csc3nc(-c4cccc(Br)c4)cn23)cc1	886
O=C(Nc1ccc2c(c1)N(S(=O)(=O)c1ccccc1)CCC2)c1ccc2c(c1)OCO2	834
CCc1ccc(NC(=O)Nc2ccc3nc(N4CCN(C)CC4)cc(C)c3c2)cc1	609
COc1ccc(CN2CCN(C(=O)C3=Cc4ccccc4OC3)CC2)c(OC)c1OC	679
COc1ccc(N2CCN(c3ncc(C(=O)O)c(C(C)C)n3)CC2)cc1	865
COc1ccc(Cl)cc1NC(=O)N1CCCC1c1nc(-c2ccccc2OC)no1 (stereo unspecified)	1010
C=CCN1CCN(C(=O)[C@@H]2[C@H](c3cc(OC)c(OC)c(OC)c3)c3cc4c(cc3[C@H](O)[C@H]2CO)OCO4)CC1	604
